Experimental data from patent US20240209371A1, “COMPOSITIONS AND METHODS FOR TREATING CANCER” (Dana-Farber Cancer Institute, Inc., priority 2021, published 2024).

Tests used:
Format in all cases: cell-based
[1] = system: CRISPR-modified PC9 cell lines; assay: Cell viability assay of parental or CRISPR-modified PC9 cells with osimertinib
Experimental: Parental or CRISPR-modified PC9 cell lines (1×10^3 cells) were plated in 384-well plates. After 24 hours, cells were treated with drugs at the indicated concentrations for 72 hours. Endpoint cell viability assays were performed using Cell Titer Glo (Promega). RAS mutant cell lines (2×10^3 cells) were seeded in 384 ultra-low attachment plates as suspension cells and evaluated using 3D-Cell Titer Glo (Promega). RAS mutant cells were treated with trametinib for 3 days and with antisense oligos or siRNA for 8 days.

[2] = system: ERK1/2; assay: Western blot after osimertinib treatment in PC9 cells
Experimental: (§1) Cells were lysed with RIPA buffer (Boston Bioproducts) supplemented with complete Mini EDTA-free Protease inhibitor cocktail (Roche) and PhoSTOP phosphatase inhibitor cocktail (Roche). The total cell lysate (20 ug) was subjected to SDS polyacrylamide gel electrophoresis and transferred to Immobilon-P polyvinylidene difluoride membranes (Bio-Rad Laboratories). Antibodies are listed in supplementary table 10. RAS-GTP was evaluated using the Active Ras Detection Kit (#8821, Cell Signaling Technology). Cells were cultured with media containing 0.1% FBS with or without 1 μM osimertinib for 24 hours, and 80 ug of GST-Raf1-RBD and 500 ug of protein lysates were used according to the manufacturer's instructions.

[3] = system: RAS-GTP; assay: RAS-GTP assay in KRAS expressing PC9 cell lines
Experimental: as §1

[4] = system: Q61 mutant cells; assay: Exon skipping by PS+2′MOE antisense oligos in Q61 mutant cells; settings: in vitro
Experimental: RNA was extracted using the RNeasy Mini kit (Qiagen) and cDNA was synthesized using the QuantiTect Reverse Transcription Kit (Qiagen). Isoforms were amplified using gene-specific-primers (FIG. 24) and amplicons were resolved on a 2% agarose gel. Isoforms were characterized by Sanger sequencing.
RAS mutant cell lines in culture media were treated in suspension with indicated concentrations of morpholino and 3-6 μM endo-porter (Gene Tools). Duration of treatment was 2 days for RNA experiments, 3 days for western blot, and 8 days for growth-inhibition assay based on previously published treatment protocols with KRAS selective inhibitors against RAS mutant cells^4. In all experiments using full PS+2′MOE antisense oligos, medium was enriched with Ca^2+. Ca^2+ enrichment of medium potentiates the in vitro activity of multiple types of oligonucleotides and is more reflective of in vivo conditions than conventional transfection methods^42. Duration of treatment was 2 days for RNA experiments, 6 days for western blot, and 8 days for growth-inhibition assay.

[5] = system: mutant KRAS pre-mRNA; assay: NGS of remaining full-length KRAS transcript in SW948 cells; settings: dose dependent, decreased from 44%
From the text: The use of mutant selective antisense oligos can be used to induce aberrant splicing only in tumor cells, but not in normal cells lacking the Q61 mutation, minimizing off target toxicity (FIG. 4 panel a). Using this approach, we induced skipping of whole exon 3 in the KRAS GQ60GK lung cancer CALU6 cell line, in a dose dependent manner (FIG. 4 panel b). […] To assess the selectivity of the morpholino for the KRAS mutant over wild type transcript, the identity of the full-length pre-mRNA contributing to the exon 3 spliced mRNA following morpholino treatment needed to be determined. […] We PCR-amplified KRAS cDNA generated from morpholino treated SW948 cells, separated it by gel electrophoresis and analyzed by NGS the remaining full-length transcript, in order to obtain the ratio of mutant versus wild type KRAS pre-mRNA targeted by the morpholino. […] We next evaluated the effect of these oligos on cell growth. As not all RAS mutant cell lines are dependent on RAS signaling for their growth^28, we determined RAS dependency of each of the Q61 mutant cell lines using KRAS, NRAS or HRAS specific siRNAs, and compared our findings to published gene effect scores for dependency by RNAi and CRISPR knock out obtained from Depmap (depmap.org) (FIG. 4 panel e). […] We also evaluated MEK inhibitor sensitivity in a panel of these cell lines using trametinib (FIG. 10 panel b). […]

C=CC(=O)Nc1cc(Nc2nccc(-c3cn(C)c4ccccc34)n2)c(OC)cc1N(C)CCN(C)C [osimertinib]
effect of osimertinib on KRAS G12C, G12D, A146T, or BRAF V600E clones ([1]; 1 μM osimertinib): largely unaffected | osimertinib sensitivity of PC9 with heterozygous KRAS GQ60GK or Q61H ([1]; heterozygous mutations): resistance | osimertinib sensitivity of PC9 clones harboring KRAS Q61K without silent mutation ([1]; single-cell clones): growth inhibition comparable to that of parental PC9 cells | ERK1/2 activation following osimertinib, KRAS GQ60GK c.180_181 delinsAA cells ([2]; PC9 KRAS GQ60GK): persistent ERK1/2 activation | ERK1/2 activation following osimertinib, KRAS Q61K alone cells ([2]; PC9 KRAS Q61K alone): not in cells expressing KRAS Q61K alone | RAS-GTP levels after osimertinib, KRAS GQ60GK ([3]; PC9 KRAS GQ60GK): minimally affected | RAS-GTP after osimertinib, KRAS Q61K single mutant or KRAS wild type parental PC9 ([3]; PC9 Q61K or parental): decrease in RAS-GTP

PS+MOE 1-3: 20nt PS+2′MOE antisense oligo; 1-3 sequence 5′-ACTCCTCTTTGCCTGCTGTG-3′ (all 2'-MOE, all phosphorothioate, methylation of C not given here)
mutant selective exon skipping compared with morpholino oligos [4]: mutant selective skipping at a much lower concentration

mor-4: morpholino targeting KRAS Q61L; M4 / mor-4-4 sequence 5′-GTACTCCTCTAGACCTGCTGTGTCG-3′ (all phosphorodiamidate morpholino (PMO))
fraction of mutant KRAS pre-mRNA within the full-length transcript species [5]: 22%
